Experimental data taken from patent publication US9675543B2, “Method of improving aging appearance of skin by modulation of WIPI-1” (Avon Products, Inc., priority 2012, dated 2017).

Test system: WIPI-1
Assay: WIPI-1 Screening, mRNA up-regulation in normal human keratinocytes (HEKa), Quantigene multiplex assay
Assay type: cell-based
Conditions: for HEKa Activity Level (percent up-regulation of WIPI-1 mRNA, scaled score): HEKa keratinocytes, 24 hours, vs vehicle control
Method: A variety of botanical extract and synthetic compounds were tested for the ability to up-regulate WIPI-1. Normal human dermal fibroblasts or keratinocytes were cultured in 96-well tissue culture treated plates, containing appropriate culture medium. Stock solutions of actives were made in an appropriate vehicle (water/Ethanol/DMSO). Cells were treated with test material or respective vehicle control diluted in growth medium for 24 hours in a humidified 37° C. incubator with 10% CO2. The concentrations of each extract are provided based on the dry weight of the given plant extract, by which is meant the weight of the extract after volatile extraction solvents have been removed. After incubation, growth medium from each plate was removed and 100 μL of lysis buffer was added to the wells and placed in 37° C. incubator with 10% CO2 for 30 minutes. At the end of incubation, the cells were collected in freezer plates and placed in −80° C. freezer, until analysis. Changes in mRNA after treatment were analysed using Panomics Quantigene multiplex assay that employs a branched DNA technology, following manufacturer's instructions (Affymetrix, CA). Percent increase (up-regulation) in mRNA for the WIPI-1 were calculated by comparing the test results to the control. The percent up-regulation is converted to a scaled score: 0: 0-20%; +: 21-40%; ++: 41-60%; +++: 61-80%; ++++: >80%.

## CCOCCCNC(=O)c1coc(CN(CCCOCC)C(=O)c2ccc(Cl)cc2)n1 [Analog 1]
Concentration 0.001%
  HEKa Activity Level (percent up-regulation of WIPI-1 mRNA, scaled score): + (+: 21-40%)
Concentration 0.01%
  HEKa Activity Level (percent up-regulation of WIPI-1 mRNA, scaled score): + (+: 21-40%)
keratinocytes
  WIPI-1 within keratinocytes upregulated (in words): upregulated
